ChEMBL document CHEMBL2021894, “The Discovery of VX-745: A Novel and Selective p38α Kinase Inhibitor” (ACS Med Chem Lett, 2011)
Activity calls are given as the source filed them. The calls are words filed in the database; no cut-off is given here.

Key:
[1] = Inhibition of PKA by filter binding assay
PBMC = experiment: Antiproliferative activity against PHA-stimulated human PBMC assessed as inhibition of cell proliferation after 72 hrs by thymidine incorporation assay; assay type: cell-based
[2] = target: Mitogen-activated protein kinase 10 (Homo sapiens) (UniProt P53779); experiment: Inhibition of JNK3 using KRELVEPLTPSGEAPNQALLR as substrate at 100 uM by spectrophotometric enzyme-coupled assay
[3] = target: Dual specificity mitogen-activated protein kinase kinase 6 (Homo sapiens) (UniProt P52564); experiment: Inhibition of MKK6
[4] = target: Casein kinase I isoform alpha (Homo sapiens) (UniProt P48729); experiment: Inhibition of CK1 at 2 uM
[5] = target: Fibroblast growth factor receptor 3 (Homo sapiens) (UniProt P22607); experiment: Inhibition of FGFR3 at 2 uM
[6] = target: Mitogen-activated protein kinase 8 (Homo sapiens) (UniProt P45983); experiment: Inhibition of JNK1 at 2 uM
[7] = target: Tyrosine-protein kinase Lck (Homo sapiens) (UniProt P06239); experiment: Inhibition of LCK at 2 uM
[8] = target: Dual specificity mitogen-activated protein kinase kinase 1 (Homo sapiens) (UniProt Q02750); experiment: Inhibition of Mek1 at 2 uM
[9] = target: Dual specificity mitogen-activated protein kinase kinase 6 (Homo sapiens) (UniProt P52564); experiment: Inhibition of MKK6 at 2 uM
[10] = target: Dual specificity mitogen-activated protein kinase kinase 2 (Homo sapiens) (UniProt P36507); experiment: Inhibition of MEK2 at 2 uM
[11] = target: Protein kinase C beta type (Homo sapiens) (UniProt P05771); experiment: Inhibition of PKCb2 at 2 uM
[12] = target: MAP kinase-activated protein kinase 5 (Homo sapiens) (UniProt Q8IW41); experiment: Inhibition of PRAK at 2 uM
[13] = target: Serine/threonine-protein kinase N2 (Homo sapiens) (UniProt Q16513); experiment: Inhibition of PRK2 at 2 uM
[14] = target: Serine/threonine-protein kinase Sgk1 (Homo sapiens) (UniProt O00141); experiment: Inhibition of SGK at 2 uM
[15] = Half life in BALB/c mouse at 2 mg/kg, iv; assay type: ADME, organism-based; parameters: dose 2 mg/kg, route intravenous; conditions: in vivo
[16] = AUC in BALB/c mouse at 2 mg/kg, iv; assay type: ADME, organism-based; parameters: dose 2 mg/kg, route intravenous; conditions: plasma
[17] = Clearance in BALB/c mouse at 2 mg/kg, iv; assay type: ADME, organism-based; parameters: dose 2 mg/kg, route intravenous; conditions: in vivo
[18] = Half life in beagle dog at 13.8 mg/kg, iv; assay type: ADME, organism-based, Canis lupus familiaris; parameters: dose 13.8 mg/kg, route intravenous; conditions: in vivo
[19] = Volume of distribution at steady state in beagle dog at 13.8 mg/kg, iv; assay type: ADME, organism-based, Canis lupus familiaris; parameters: dose 13.8 mg/kg, route intravenous; conditions: in vivo, read-out: Vdss
Canis familiaris = experiment: AUC in beagle dog at 13.8 mg/kg, iv; assay type: ADME, organism-based, Canis lupus familiaris, Plasma; parameters: dose 13.8 mg/kg, route intravenous; conditions: in vivo
[20] = Half life in Sprague-Dawley rat at 43 mg/kg, po; assay type: ADME, organism-based; parameters: dose 43 mg/kg, route oral; conditions: in vivo
[21] = Cmax in Sprague-Dawley rat at 43 mg/kg, po; assay type: ADME, organism-based; parameters: dose 43 mg/kg, route oral; conditions: in vivo
[22] = AUC in Sprague-Dawley rat at 43 mg/kg, po; assay type: ADME, organism-based; parameters: dose 43 mg/kg, route oral; conditions: plasma
[23] = AUC in BALB/c mouse at 40 mg/kg, po; assay type: ADME, organism-based; parameters: dose 40 mg/kg, route oral; conditions: plasma
[24] = Half life in beagle dog at 33 mg/kg, po; assay type: ADME, organism-based, Canis lupus familiaris; parameters: dose 33 mg/kg, route oral; conditions: in vivo
[25] = Cmax in beagle dog at 33 mg/kg, po; assay type: ADME, organism-based, Canis lupus familiaris; parameters: dose 33 mg/kg, route oral; conditions: in vivo
Cytochrome P450 3A4 = Cytochrome P450 3A4 (Homo sapiens, UniProt P08684); experiment: Inhibition of human CYP3A4; assay type: ADME
Cytochrome P450 2C19 = Cytochrome P450 2C19 (Homo sapiens, UniProt P33261); experiment: Inhibition of human CYP2C19; assay type: ADME
Cytochrome P450 2C9 = Cytochrome P450 2C9 (Homo sapiens, UniProt P11712); experiment: Inhibition of human CYP2C9; assay type: ADME
Cytochrome P450 1A2 = Cytochrome P450 1A2 (Homo sapiens, UniProt P05177); experiment: Inhibition of human CYP1A2; assay type: ADME
[26] = Plasma protein binding in dog; assay type: ADME, cell-free, Canis lupus familiaris; conditions: read-out: PPB (converted)
Mus musculus [27] = experiment: Antiarthritic activity in complete Freund's adjuvant-immunized DBA/1J mouse assessed as inhibition of type 2 collagen-induced paw inflammation at 5 mg/kg, po bid measured on day 20; assay type: functional; conditions: 480 h
Mus musculus [28] = experiment: Antiarthritic activity in complete Freund's adjuvant-immunized DBA/1J mouse assessed as inhibition of type 2 collagen-induced bone and cartilage erosion at […], po bid measured on day 20; assay type: functional; conditions: 480 h, dose 2.5 mg/kg
Mus musculus [29] = experiment: Antiarthritic activity in complete Freund's adjuvant-immunized DBA/1J mouse assessed as inhibition of type 2 collagen-induced bone and cartilage erosion at 5 mg/kg, po bid measured on day 20; assay type: functional; conditions: 480 h
Mus musculus [30] = experiment: Antiarthritic activity in complete Freund's adjuvant-immunized DBA/1J mouse assessed as inhibition of type 2 collagen-induced bone and cartilage erosion at 10 mg/kg, po bid measured on day 20; assay type: functional; conditions: 480 h
[31] = target: Tyrosine-protein kinase receptor UFO (Homo sapiens) (UniProt P30530); conditions: 2 uM
Description: Inhibition of Axl at 2 uM

[32] = target: Cyclin-dependent kinase 1 (Homo sapiens) (UniProt P06493); conditions: 2 uM
Description: Inhibition of CDK1 at 2 uM

[33] = target: Cyclin-dependent kinase 5 (Homo sapiens) (UniProt Q00535); conditions: 2 uM
Description: Inhibition of CDK5 at 2 uM

[34] = target: Serine/threonine-protein kinase Chk1 (Homo sapiens) (UniProt O14757); conditions: 2 uM
Description: Inhibition of CHK1 at 2 uM

[35] = target: Epidermal growth factor receptor (Homo sapiens) (UniProt P00533); conditions: 2 uM
Description: Inhibition of EGFR at 2 uM

[36] = target: Tyrosine-protein kinase Fes/Fps (Homo sapiens) (UniProt P07332); conditions: 2 uM
Description: Inhibition of FES at 2 uM

[37] = target: Inhibitor of nuclear factor kappa-B kinase subunit alpha (Homo sapiens) (UniProt O15111); conditions: 2 uM
Description: Inhibition of IKKa at 2 uM

[38] = target: Insulin receptor (Homo sapiens) (UniProt P06213); conditions: 2 uM
Description: Inhibition of IRTK at 2 uM

[39] = target: Tyrosine-protein kinase Lyn (Homo sapiens) (UniProt P07948); conditions: 2 uM
Description: Inhibition of Lyn at 2 uM

[40] = target: Dual specificity mitogen-activated protein kinase kinase 7 (Homo sapiens) (UniProt O14733); conditions: 2 uM
Description: Inhibition of MKK7 at 2 uM

[41] = target: Ribosomal protein S6 kinase alpha-5 (Homo sapiens) (UniProt O75582); conditions: 2 uM
Description: Inhibition of MSK1 at 2 uM

[42] = target: Serine/threonine-protein kinase 3 (Homo sapiens) (UniProt Q13188); conditions: 2 uM
Description: Inhibition of Mst2 at 2 uM

[43] = target: Mitogen-activated protein kinase 11 (Homo sapiens) (UniProt Q15759); conditions: 2 uM
Description: Inhibition of p38beta at 2 uM

[44] = target: Serine/threonine-protein kinase PAK 2 (Homo sapiens) (UniProt Q13177); conditions: 2 uM
Description: Inhibition of PAK2 at 2 uM

[45] = target: Protein kinase C theta type (Homo sapiens) (UniProt Q04759); conditions: 2 uM
Sequence of Protein kinase C theta type (Homo sapiens) (Q04759 whole entry, looked up): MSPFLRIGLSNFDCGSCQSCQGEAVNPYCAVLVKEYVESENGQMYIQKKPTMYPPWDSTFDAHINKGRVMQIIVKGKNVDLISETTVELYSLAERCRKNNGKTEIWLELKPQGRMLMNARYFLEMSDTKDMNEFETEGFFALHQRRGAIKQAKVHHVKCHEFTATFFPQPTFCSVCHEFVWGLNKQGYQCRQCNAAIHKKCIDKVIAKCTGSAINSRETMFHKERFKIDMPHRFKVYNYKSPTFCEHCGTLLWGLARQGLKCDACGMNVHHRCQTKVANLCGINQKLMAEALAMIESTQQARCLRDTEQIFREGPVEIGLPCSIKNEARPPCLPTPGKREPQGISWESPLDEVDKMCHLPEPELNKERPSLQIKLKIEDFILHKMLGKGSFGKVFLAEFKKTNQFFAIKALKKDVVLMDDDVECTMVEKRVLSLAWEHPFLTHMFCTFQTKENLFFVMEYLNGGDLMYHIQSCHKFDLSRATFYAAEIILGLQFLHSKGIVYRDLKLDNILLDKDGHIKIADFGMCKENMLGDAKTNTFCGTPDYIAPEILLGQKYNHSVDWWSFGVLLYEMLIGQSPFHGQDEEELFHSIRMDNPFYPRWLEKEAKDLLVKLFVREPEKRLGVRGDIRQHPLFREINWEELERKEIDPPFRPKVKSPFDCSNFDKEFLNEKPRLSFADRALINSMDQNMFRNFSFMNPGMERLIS
Description: Inhibition of PKCtheta at 2 uM

Sequence of Dual specificity mitogen-activated protein kinase kinase 6 (Homo sapiens) (P52564 whole entry, canonical isoform): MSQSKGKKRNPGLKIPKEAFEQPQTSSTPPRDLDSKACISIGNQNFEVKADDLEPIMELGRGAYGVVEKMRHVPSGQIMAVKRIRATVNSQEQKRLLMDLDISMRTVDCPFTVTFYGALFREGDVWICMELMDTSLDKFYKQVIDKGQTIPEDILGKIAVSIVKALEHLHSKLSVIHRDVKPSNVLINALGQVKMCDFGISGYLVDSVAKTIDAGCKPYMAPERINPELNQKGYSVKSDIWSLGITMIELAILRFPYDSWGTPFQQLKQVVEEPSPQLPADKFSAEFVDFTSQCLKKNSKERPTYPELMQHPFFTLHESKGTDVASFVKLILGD
Sequence of Cytochrome P450 1A2 (P05177 whole entry): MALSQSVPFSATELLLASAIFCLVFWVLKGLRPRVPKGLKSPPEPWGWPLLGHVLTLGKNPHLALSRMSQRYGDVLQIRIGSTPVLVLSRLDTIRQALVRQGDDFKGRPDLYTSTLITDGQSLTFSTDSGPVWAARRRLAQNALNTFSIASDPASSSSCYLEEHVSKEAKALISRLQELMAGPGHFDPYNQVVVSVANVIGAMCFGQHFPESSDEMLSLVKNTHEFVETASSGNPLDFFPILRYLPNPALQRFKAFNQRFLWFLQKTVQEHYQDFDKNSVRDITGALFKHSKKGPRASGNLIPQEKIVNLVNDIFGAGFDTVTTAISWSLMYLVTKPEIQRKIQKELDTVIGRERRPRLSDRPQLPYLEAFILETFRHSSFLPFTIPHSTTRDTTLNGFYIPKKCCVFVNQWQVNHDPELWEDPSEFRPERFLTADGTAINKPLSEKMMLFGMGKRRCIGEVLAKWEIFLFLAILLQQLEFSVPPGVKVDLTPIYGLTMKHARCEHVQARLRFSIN
Sequence of Mitogen-activated protein kinase 11 (Homo sapiens) (Q15759 whole entry): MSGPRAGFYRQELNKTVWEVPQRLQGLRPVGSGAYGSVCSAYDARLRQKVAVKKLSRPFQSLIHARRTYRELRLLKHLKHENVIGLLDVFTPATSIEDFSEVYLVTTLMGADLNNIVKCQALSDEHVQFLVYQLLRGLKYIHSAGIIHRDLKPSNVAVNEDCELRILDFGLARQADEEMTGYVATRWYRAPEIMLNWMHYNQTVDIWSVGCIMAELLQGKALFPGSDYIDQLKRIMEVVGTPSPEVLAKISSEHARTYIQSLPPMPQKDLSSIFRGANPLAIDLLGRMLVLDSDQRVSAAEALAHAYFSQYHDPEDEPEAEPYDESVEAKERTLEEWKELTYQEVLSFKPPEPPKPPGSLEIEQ
Sequence of Insulin receptor (Homo sapiens) (P06213 28-758 limits assumed): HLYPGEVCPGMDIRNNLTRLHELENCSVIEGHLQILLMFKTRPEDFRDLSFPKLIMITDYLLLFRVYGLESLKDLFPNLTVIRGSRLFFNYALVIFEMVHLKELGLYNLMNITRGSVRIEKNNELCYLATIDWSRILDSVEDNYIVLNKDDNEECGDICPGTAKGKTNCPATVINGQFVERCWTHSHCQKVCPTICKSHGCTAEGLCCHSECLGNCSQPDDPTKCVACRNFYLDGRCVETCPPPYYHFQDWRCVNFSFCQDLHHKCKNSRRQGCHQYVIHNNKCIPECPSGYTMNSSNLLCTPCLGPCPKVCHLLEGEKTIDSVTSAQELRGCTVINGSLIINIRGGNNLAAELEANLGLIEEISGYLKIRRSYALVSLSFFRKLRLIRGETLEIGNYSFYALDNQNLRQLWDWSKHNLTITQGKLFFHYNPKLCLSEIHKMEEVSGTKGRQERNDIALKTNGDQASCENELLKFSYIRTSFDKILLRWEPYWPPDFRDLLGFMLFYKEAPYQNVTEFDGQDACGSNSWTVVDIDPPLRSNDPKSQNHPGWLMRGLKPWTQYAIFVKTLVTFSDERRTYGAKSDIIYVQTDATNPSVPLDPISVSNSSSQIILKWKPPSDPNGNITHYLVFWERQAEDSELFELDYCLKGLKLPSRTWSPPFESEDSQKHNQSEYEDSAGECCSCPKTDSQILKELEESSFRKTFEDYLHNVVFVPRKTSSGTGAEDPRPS
Sequence of Insulin receptor (Homo sapiens) (P06213 763-1382 limits assumed): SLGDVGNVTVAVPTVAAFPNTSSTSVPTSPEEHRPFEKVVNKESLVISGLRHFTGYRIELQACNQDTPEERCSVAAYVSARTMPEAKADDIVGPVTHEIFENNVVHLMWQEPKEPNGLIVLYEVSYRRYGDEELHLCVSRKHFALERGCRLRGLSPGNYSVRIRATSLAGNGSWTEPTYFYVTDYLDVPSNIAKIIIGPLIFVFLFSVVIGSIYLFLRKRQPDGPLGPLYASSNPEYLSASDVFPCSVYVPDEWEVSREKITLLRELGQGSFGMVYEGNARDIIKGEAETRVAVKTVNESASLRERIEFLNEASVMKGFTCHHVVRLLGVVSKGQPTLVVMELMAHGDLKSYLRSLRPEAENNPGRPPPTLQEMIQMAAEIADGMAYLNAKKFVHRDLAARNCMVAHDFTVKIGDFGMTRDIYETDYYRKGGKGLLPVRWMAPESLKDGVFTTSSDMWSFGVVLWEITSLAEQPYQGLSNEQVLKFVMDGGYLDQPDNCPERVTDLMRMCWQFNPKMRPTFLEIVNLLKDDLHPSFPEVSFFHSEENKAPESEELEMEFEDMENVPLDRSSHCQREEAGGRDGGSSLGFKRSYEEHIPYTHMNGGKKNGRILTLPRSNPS
Sequence of Tyrosine-protein kinase Fes/Fps (Homo sapiens) (P07332 whole entry): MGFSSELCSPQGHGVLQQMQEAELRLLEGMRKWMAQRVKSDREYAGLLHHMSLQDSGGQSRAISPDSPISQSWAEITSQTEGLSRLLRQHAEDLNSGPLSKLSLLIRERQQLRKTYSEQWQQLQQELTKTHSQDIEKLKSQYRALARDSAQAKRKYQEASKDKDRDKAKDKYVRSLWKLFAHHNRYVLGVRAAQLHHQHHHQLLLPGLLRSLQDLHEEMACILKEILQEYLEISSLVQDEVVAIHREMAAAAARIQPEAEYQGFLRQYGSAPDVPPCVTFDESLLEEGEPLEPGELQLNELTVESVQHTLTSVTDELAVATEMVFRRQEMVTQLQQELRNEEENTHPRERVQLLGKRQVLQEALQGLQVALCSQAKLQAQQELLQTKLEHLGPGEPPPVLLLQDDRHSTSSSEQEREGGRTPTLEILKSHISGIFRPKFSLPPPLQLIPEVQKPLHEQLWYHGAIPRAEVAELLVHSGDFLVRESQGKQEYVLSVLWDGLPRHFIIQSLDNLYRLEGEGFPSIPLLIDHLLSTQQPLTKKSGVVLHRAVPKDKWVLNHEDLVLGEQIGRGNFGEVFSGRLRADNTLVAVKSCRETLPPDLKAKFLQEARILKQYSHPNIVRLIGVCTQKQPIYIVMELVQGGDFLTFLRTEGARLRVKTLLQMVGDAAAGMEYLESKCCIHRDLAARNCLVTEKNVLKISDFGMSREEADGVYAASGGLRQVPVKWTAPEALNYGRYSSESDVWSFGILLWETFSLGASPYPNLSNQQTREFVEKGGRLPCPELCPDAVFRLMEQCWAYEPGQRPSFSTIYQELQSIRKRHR
Sequence of Cytochrome P450 3A4 (P08684 whole entry): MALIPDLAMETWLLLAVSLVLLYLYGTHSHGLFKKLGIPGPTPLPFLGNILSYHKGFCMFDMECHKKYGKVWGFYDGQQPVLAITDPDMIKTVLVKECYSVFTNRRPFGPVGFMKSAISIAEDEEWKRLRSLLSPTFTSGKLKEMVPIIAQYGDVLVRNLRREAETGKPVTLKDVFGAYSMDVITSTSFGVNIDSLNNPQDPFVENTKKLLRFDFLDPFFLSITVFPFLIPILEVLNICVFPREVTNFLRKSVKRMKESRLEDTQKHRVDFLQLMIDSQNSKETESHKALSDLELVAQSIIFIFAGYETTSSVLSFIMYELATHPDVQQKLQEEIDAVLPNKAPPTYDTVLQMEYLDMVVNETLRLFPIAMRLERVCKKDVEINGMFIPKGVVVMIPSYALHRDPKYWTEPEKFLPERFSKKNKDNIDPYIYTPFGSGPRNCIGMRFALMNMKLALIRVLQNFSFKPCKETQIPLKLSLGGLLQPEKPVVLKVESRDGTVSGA
Sequence of Cyclin-dependent kinase 5 (Homo sapiens) (Q00535 whole entry, looked up): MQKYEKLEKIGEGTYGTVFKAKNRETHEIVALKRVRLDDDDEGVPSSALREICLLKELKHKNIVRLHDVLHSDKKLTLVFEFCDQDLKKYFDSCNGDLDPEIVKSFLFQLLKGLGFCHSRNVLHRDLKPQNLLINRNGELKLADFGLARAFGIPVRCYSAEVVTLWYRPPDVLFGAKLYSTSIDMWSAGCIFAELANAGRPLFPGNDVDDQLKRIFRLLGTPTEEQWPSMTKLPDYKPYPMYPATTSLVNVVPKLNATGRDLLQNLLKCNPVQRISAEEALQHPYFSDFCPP

Structure (SMILES): O=c1ncn2nc(Sc3ccc(F)cc3F)ccc2c1-c1c(Cl)cccc1Cl [NEFLAMAPIMOD]
- IC50 [1]: > 5 µM
- Activity (PBMC): Non-toxic
- inhibition [2]: inactive
- inhibition [3]: Active
- inhibition [4]: 1%
- inhibition [5]: 20%
- inhibition [6]: 10%
- inhibition [7]: 20%
- inhibition [8]: 5%
- inhibition [9]: 95%
- inhibition [10]: 14%
- inhibition [11]: 5%
- inhibition [12]: 12%
- inhibition [13]: 13%
- inhibition [14]: 5%
- half-life [15]: 2.6 h
- AUC [16]: 1540 ng·h/mL
- clearance [17]: 21 mL/min/kg
- half-life [18]: 1.5 h
- Vd [19]: 2.3 L/kg
- AUC (Canis familiaris): 6120 ng·h/mL
- half-life [20]: 4.5 h
- Cmax [21]: 890 ng/mL
- AUC [22]: 6300 ng·h/mL
- AUC [23]: 27000 ng·h/mL
- half-life [24]: 4.5 h
- Cmax [25]: 1370 ng/mL
- IC50 (Cytochrome P450 3A4): > 40 µM
- IC50 (Cytochrome P450 2C19): > 40 µM
- IC50 (Cytochrome P450 2C9): > 40 µM
- IC50 (Cytochrome P450 1A2): > 40 µM
- fraction unbound [26]: 0.08
- inhibition in vivo at 5 mg/kg (Mus musculus [27]): 31%
- inhibition in vivo at […] (Mus musculus [28]): 35%
- inhibition in vivo at 5 mg/kg (Mus musculus [29]): 32%
- inhibition in vivo at 10 mg/kg (Mus musculus [30]): 39%
- inhibition [31]: 0%
- inhibition [32]: 0%
- inhibition [33]: 0%
- inhibition [34]: 0%
- inhibition [35]: 7%
- inhibition [36]: 7%
- inhibition [37]: 0%
- inhibition [38]: 0%
- inhibition [39]: 0%
- inhibition [40]: 0%
- inhibition [41]: 0%
- inhibition [42]: 0%
- inhibition [43]: 84%
- inhibition [44]: 0%
- inhibition [45]: 0%
